Results as given in patent US5112519A, “Process for production of biodegradable surfactants and compositions thereof” (Mobil Oil Corporation, priority 1989, dated 1992).

Tests used:
[1] = Soil removal, phosphorous built industrial liquid laundry detergent, carbon black/oil; conditions: 130° F.
From the text: (§1) In contrast, the three industrial detergents contained a high performance builder package, and dodecylbenzenesulfonic acid sodium salt. Two of the three also contain an AE, either tridecanol-9-mole-ethoxylate or C12-15 -alcohol-9 mole-ethoxylate. Many commercial detergents use combinations of LABS and AE's to balance performance and cost. LABS remove particulates well and lower overall surfactant cost while AE's effectively remove oily soils. The surfactant concentrations in all three are equal (i.e., the detergent without AE had more LABS) excepting the detergent using Mobil's AE. Its concentration is not increased to offset a contaminant, 7 wt % polyethylene glycol. The builder in all three detergents contained tetrapotassium pyrophosphate, sodium metasilicate, potassium hydroxide, and carboxymethylcellulose.
(§2) Testing Methods. This study uses two artificial soils on three test fabrics. Carbon black in an oil matrix simulates particulate soil, and sebum/dust simulates oily soil. Test Fabrics Inc. (Middlesex, N.J.) prints these soils on 100% cotton, 65/35 polyester/cotton with permanent press finish, and 100% polyester fabrics.
(§3) U.S. Testing Company did the fabric washing and drying under carefully controlled conditions. A Terg-O-Tometer washes using a 15 minute wash time. Conditions are 100 rpm agitation speed, 130° F. for the industrial detergents and 100° F. for the household detergents. They made wash and rinse water to 150 ppm hardness (U.S. national average), and washes six 3×4 inch test swatches per liter of solution. They rinse each load twice for five minutes. After washing and rinsing, the swatches are dried in an electric dryer, and ironed with a warm iron to remove wrinkles. All samples are run in triplicate.
(§4) White light reflectance, taken before and after washing, measures soil removal. A green filter cut out the effect of artificial brighteners. They measure soil redoposition by taking reflectance readings of fabric margins (areas not printed with soil) before and after washing. […]

[2] = Soil removal, phosphorous built industrial liquid laundry detergent, sebum/dust; conditions: 130° F.
From the text: as §1, §2, §3, §4

[3] = Soil removal, unbuilt household liquid laundry detergent, sebum/dust; conditions: 100° F.
From the text: (§5) Applicants blend three unbuilt household detergents differing only in the surfactant. Either Mobil's tridecanol-9 mole-ethoxylate, Shell's C12-15 -alcohol-9 mole-ethoxylate, or Vista's dodecylbenzenesulfonic acid sodium salt are used. All contain triethanolamine to make the wash liquor basic. This type formulation magnifies surfactant differences because it lacks a builder to extend the surfactant and soften hard water.
as §2, §3
(§6) White light reflectance, taken before and after washing, measures soil removal. A green filter cut out the effect of artificial brighteners. They measure soil redoposition by taking reflectance readings of fabric margins (areas not printed with soil) before and after washing. […] However, the reflectance technique more closely measures soil removal from the fabric surface, what the consumer sees.

[4] = Soil removal, unbuilt household liquid laundry detergent, carbon black/oil; conditions: 100° F.
From the text: as §5, §2, §3, §6

Substance: dodecylbenzenesulfonic acid sodium salt [Vista LABS]
- Percent Soil Removal ([1]; Cotton): 52%
- Percent Soil Removal ([1]; Polyester): 29%
- Percent Soil Removal ([1]; Polyester/Cotton): 34%
- Percent Soil Removal ([2]; Cotton): 60%
- Percent Soil Removal ([2]; Polyester): 39%
- Percent Soil Removal ([2]; Polyester/Cotton): 82%
- Percent Soil Removal ([3]; Cotton): 36%
- Percent Soil Removal ([3]; Polyester): 19%
- Percent Soil Removal ([3]; Polyester/Cotton): 45%
- Percent Soil Removal ([4]; Cotton): 36%
- Percent Soil Removal ([4]; Polyester): 40%
- Percent Soil Removal ([4]; Polyester/Cotton): 31%
